Read-outs that look alike come from different tables or passages of the source.
How the values were obtained:
[1] = target: AktK (Homo sapiens, UniProt P31749); test: Luciferase-coupled chemiluminescence kinase assay (ATP consumption); format: biochemical; settings: read-out: AKT-1 IC50
Description: (§1) One measure of inhibition is Ki. […] The Ki for a compound is determined from the IC50 based on three assumptions. First, only one compound molecule binds to the enzyme and there is no cooperativity. […] Third, the enzymatic rate of the enzyme-inhibitor complex is zero. The rate data (i.e. compound concentration) are fitted to the equation: […]
(§2) Luciferase-Coupled Chemiluminescence Assay Protocol
(§3) Kinase activity is measured as the percent of ATP consumed following the kinase reaction using luciferase-luciferin-coupled chemiluminescence. Reactions were conducted in 384-well white, medium binding microtiter plates (Greiner). Kinase reactions were initiated by combining test compounds, ATP and kinase in a 20 uL volume. The reaction mixture was incubated at ambient temperature for 3 hrs. For p70S6K and/or AktK, 2.5-5 nM of the enzyme was pre-incubated with compound in 20 mM Tris pH 7.5, 10 mM MgCl2, 0.03% TX-100, and 1 mM DTT for 30 minutes at room temperature. Following the kinase reaction, a 20 μL aliquot of luciferase-luciferin mix was added and the chemiluminescence signal measured using a Victor^2 plate reader (Perkin Elmer). The luciferase-luciferin mix contained 50 mM HEPES, pH 7.8, 67 mM oxalic acid (pH 7.8), 5 (or 50) mM DTT, 0.4% Triton X-100, 0.25 mg/mL coenzyme A, 63 μM AMP, 28 μg/1 mL luciferin and 40,000 units/mL luciferase. Total ATP consumption was limited to 25-60% and the IC50 values correlate well with those determined by radiometric assays.

[2] = target: p70S6K (Homo sapiens, UniProt P23443); test: as above; format: biochemical
Sequence of p70S6K (P23443 whole entry): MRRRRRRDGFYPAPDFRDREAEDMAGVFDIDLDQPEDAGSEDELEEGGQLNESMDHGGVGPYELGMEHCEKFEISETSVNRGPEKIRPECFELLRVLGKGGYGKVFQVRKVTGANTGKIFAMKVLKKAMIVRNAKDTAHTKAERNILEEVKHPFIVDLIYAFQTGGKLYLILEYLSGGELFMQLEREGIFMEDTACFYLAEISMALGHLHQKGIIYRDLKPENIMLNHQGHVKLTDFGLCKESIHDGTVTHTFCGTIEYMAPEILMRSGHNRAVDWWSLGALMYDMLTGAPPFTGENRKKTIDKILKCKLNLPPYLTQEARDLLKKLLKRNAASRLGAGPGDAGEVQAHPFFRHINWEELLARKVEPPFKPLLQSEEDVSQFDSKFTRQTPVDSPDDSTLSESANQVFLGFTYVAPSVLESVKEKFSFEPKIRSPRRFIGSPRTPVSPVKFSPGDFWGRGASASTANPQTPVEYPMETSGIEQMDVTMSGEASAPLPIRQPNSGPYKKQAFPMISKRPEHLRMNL
Description: as §1, §2, §3

Sequence of AktK (P31749 whole entry): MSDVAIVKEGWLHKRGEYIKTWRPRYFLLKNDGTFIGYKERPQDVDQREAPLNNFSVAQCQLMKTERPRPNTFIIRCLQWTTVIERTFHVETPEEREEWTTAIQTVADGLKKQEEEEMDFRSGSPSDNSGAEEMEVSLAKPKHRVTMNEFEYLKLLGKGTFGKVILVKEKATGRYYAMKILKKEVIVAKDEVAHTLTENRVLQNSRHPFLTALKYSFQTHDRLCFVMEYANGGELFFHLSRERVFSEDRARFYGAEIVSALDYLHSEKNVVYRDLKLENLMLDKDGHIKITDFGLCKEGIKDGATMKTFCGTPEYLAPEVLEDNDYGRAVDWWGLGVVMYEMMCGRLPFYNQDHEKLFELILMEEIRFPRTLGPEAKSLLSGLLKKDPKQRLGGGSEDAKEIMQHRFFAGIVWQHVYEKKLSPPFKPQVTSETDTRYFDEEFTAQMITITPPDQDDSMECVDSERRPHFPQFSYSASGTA

Structure (SMILES) | IC50 ([1]; Table 1, class symbols per key) | IC50 ([2]; Table 1, class symbols per key) | IC50 [1] | IC50 [2]
Cc1cccc(COc2cccc(N3CCN(c4ncnc5[nH]nc(Br)c45)CC3)c2)c1 [Entry 141, 3-bromo-4-[4-(3-{[(3-methylphenyl)methyl]oxy}phenyl)piperazin-1-yl]-1H-pyrazolo[3,4-d]pyrimidine] | ≥ 10 µM | 0.1 to 1 µM |  | 
CNC(=O)c1ccc(C)c(N2CCN(c3ncnc4[nH]nc(Br)c34)CC2)c1 [Entry 188, 3-[4-(3-bromo-1H-pyrazolo[3,4-d]pyrimidin-4-yl)piperazin-1-yl]-N,4-dimethylbenzamide] | 0.1 to 1 µM | < 0.1 µM |  | 
Cc1c(NCCN2CCCC2)cc(C#Cc2ccccc2)cc1N1CCN(c2ncnc3[nH]nc(Br)c23)CC1 [Entry 235, 3-[4-(3-bromo-1H-pyrazolo[3,4-d]pyrimidin-4-yl)piperazin-1-yl]-2-methyl-5-(phenylethynyl)-N-(2-pyrrolidin-1-ylethyl)aniline] | 0.1 to 1 µM | < 0.1 µM |  | 
CCc1n[nH]c2ncnc(N3CCN(c4nc(C)cnc4C)CC3)c12 [Entry 101, 4-[4-(3,6-dimethylpyrazin-2-yl)piperazin-1-yl]-3-ethyl-1H-pyrazolo[3,4-d]pyrimidine] | ≥ 10 µM | 0.1 to 1 µM |  | 
Cc1c(NCCN2CCCC2)cc(CCC(C)(C)C)cc1N1CCN(c2ncnc3[nH]nc(Br)c23)CC1 [Entry 244, 3-[4-(3-bromo-1H-pyrazolo[3,4-d]pyrimidin-4-yl)piperazin-1-yl]-5-(3,3-dimethylbutyl)-2-methyl-N-(2-pyrrolidin-1-ylethyl)aniline] | < 0.1 µM | < 0.1 µM |  | 
CCOc1cc(NCCN2CCCC2)c(C)c(N2CCN(c3ncnc4[nH]nc(Br)c34)CC2)c1 [Entry 212, 3-[4-(3-bromo-1H-pyrazolo[3,4-d]pyrimidin-4-yl)piperazin-1-yl]-5-(ethyloxy)-2-methyl-N-(2-pyrrolidin-1-ylethyl)aniline] | < 0.1 µM | < 0.1 µM |  | 
Cc1c(NCCN2CCCC2)cc(OCC2CCCO2)cc1N1CCN(c2ncnc3[nH]nc(Br)c23)CC1 (centres unmarked) [Entry 222, 3-[4-(3-bromo-1H-pyrazolo[3,4-d]pyrimidin-4-yl)piperazin-1-yl]-2-methyl-N-(2-pyrrolidin-1-ylethyl)-5-[(tetrahydrofuran-2-ylmethyl)oxy]aniline] | < 0.1 µM | < 0.1 µM |  | 
CC(C)CCNc1c(F)c(F)nc(N2CCN(c3ncnc4[nH]nc(Br)c34)CC2)c1F [Entry 257, 2-[4-(3-bromo-1H-pyrazolo[3,4-d]pyrimidin-4-yl)piperazin-1-yl]-3,5,6-trifluoro-N-(3-methylbutyl)pyridin-4-amine] | 1 to 10 µM | 0.1 to 1 µM |  | 
Cc1c(NCCN(C)C)cc(C(=O)Nc2ccccc2)cc1N1CCN(c2ncnc3[nH]nc(Br)c23)CC1 [Entry 225, 3-[4-(3-bromo-1H-pyrazolo[3,4-d]pyrimidin-4-yl)piperazin-1-yl]-5-{[2-(dimethylamino)eth-yl]amino}-4-methyl-N-phenylbenzamide] | < 0.1 µM | < 0.1 µM |  | 
CCc1n[nH]c2ncnc(N3CCN(c4ncccc4C(N)=O)CC3)c12 [Entry 115, 2-[4-(3-ethyl-1H-pyrazolo[3,4-d]pyrimidin-4-yl)piperazin-1-yl]pyridine-3-carboxamide] | ≥ 10 µM | 0.1 to 1 µM |  | 
Cc1ccc(Cl)cc1N1CCN(c2ncnc3[nH]nc(-c4ccc(O)cc4)c23)CC1 [Entry 331, 4-{4-[4-(5-chloro-2-methylphenyl)piperazin-1-yl]-1H-pyrazolo[3,4-d]pyrimidin-3-yl}phenol] |  |  | 1 to 10 µM | < 0.1 µM
Cc1cc(N2CCN(c3ncnc4[nH]nc(Br)c34)CC2)c2ccccc2n1 [Entry 120, 4-[4-(3-bromo-1H-pyrazolo[3,4-d]pyrimidin-4-yl)piperazin-1-yl]-2-methylquinoline] | ≥ 10 µM | < 0.1 µM |  | 
Fc1ccccc1N1CCN(c2ncnc3[nH]ccc23)CC1 [Entry 313, 4-[4-(2-fluorophenyl)piperazin-1-yl]-7H-pyrrolo[2,3-d]pyrimidine] |  |  | ≥ 10 µM | 0.1 to 1 µM
Cc1c(CCC[n+]2ccccc2)cc(-c2ccccc2)cc1N1CCN(c2ncnc3[nH]nc(Br)c23)CC1 [Entry 232, 1-(3-{5-[4-(3-bromo-1H-pyrazolo[3,4-d]pyrimidin-4-yl)piperazin-1-yl]-4-methylbiphenyl-3-yl}propyl)pyridinium] | < 0.1 µM | < 0.1 µM |  | 
CCc1n[nH]c2ncnc(N3CCN(c4cc(F)cc(NCCN5CCCC5)c4Cl)CC3)c12 [Entry 130, 2-chloro-3-[4-(3-ethyl-1H-pyrazolo[3,4-d]pyrimidin-4-yl)piperazin-1-yl]-5-fluoro-N-(2-pyrrolidin-1-ylethyl)aniline] | 1 to 10 µM | < 0.1 µM |  | 
Cc1c(NCCN2CCCC2)cc(OCCC(C)C)cc1N1CCN(c2ncnc3[nH]nc(Br)c23)CC1 [Entry 206, 3-[4-(3-bromo-1H-pyrazolo[3,4-d]pyrimidin-4-yl)piperazin-1-yl]-2-methyl-5-[(3-methylbutyl)oxy]-N-(2-pyrrolidin-1-ylethyl)aniline] | < 0.1 µM | < 0.1 µM |  | 

Second part, the compound after the results:

IC50 ([1]; Table 1, class symbols per key) | IC50 ([2]; Table 1, class symbols per key) | IC50 [1] | IC50 [2] | Structure (SMILES)
1 to 10 µM | 0.1 to 1 µM |  |  | Brc1n[nH]c2ncnc(N3CCN(c4nccnc4OCCN4CCCCC4)CC3)c12 [Entry 167, 3-bromo-4-(4-{3-[(2-piperidin-1-ylethyl)oxy]pyrazin-2-yl}piperazin-1-yl)-1H-pyrazolo[3,4-d]pyrimidine]
 |  | ≥ 10 µM | 1 to 10 µM | CCc1n[nH]c2ncnc(N3CCN(c4cccc(Cl)c4)C(C(=O)NCCN4CCOCC4)C3)c12 (centres unmarked) [Entry 383, 1-(3-chlorophenyl)-4-(3-ethyl-1H-pyrazolo[3,4-d]pyrimidin-4-yl)-N-(2-morpholin-4-ylethyl)piperazine-2-carboxamide]
≥ 10 µM | 1 to 10 µM |  |  | FC(F)(F)c1cnc(N2CCN(c3ncnc4[nH]nc(Br)c34)CC2)c(Cl)c1 [Entry 136, 3-bromo-4-{4-[3-chloro-5-(trifluoromethyl)pyridin-2-yl]piperazin-1-yl}-1H-pyrazolo[3,4-d]pyrimidine]
≥ 10 µM | 0.1 to 1 µM |  |  | CCc1n[nH]c2ncnc(N3CCN(c4cc(Cl)cc(OCCN(CC)CC)c4)CC3)c12 [Entry 170, 2-({3-chloro-5-[4-(3-ethyl-1H-pyrazolo[3,4-d]pyrimidin-4-yl)piperazin-1-yl]phenyl}oxy)-N,N-diethylethanamine]
< 0.1 µM | < 0.1 µM |  |  | Cc1c(NCCN2CCCC2)cc(Br)cc1N1CCN(c2ncnc3[nH]nc(Br)c23)CC1 [Entry 271, 5-bromo-3-[4-(3-bromo-1H-pyrazolo[3,4-d]pyrimidin-4-yl)piperazin-1-yl]-2-methyl-N-(2-pyrrolidin-1-ylethyl)aniline]
≥ 10 µM | 0.1 to 1 µM |  |  | CCc1n[nH]c2ncnc(N3CCN(c4cc(C(F)(F)F)ccn4)CC3)c12 [Entry 116, 3-ethyl-4-{4-[4-(trifluoromethyl)pyridin-2-yl]piperazin-1-yl}-1H-pyrazolo[3,4-d]pyrimidine]
1 to 10 µM | < 0.1 µM |  |  | Cc1c(OCCN2CCOCC2)cc(Cl)cc1N1CCN(c2ncnc3[nH]nc(C(F)(F)F)c23)CC1 [Entry 41, 4-(4-{5-chloro-2-methyl-3-[(2-morpholin-4-ylethyl)oxy]phenyl}piperazin-1-yl)-3-(trifluoromethyl)-1H-pyrazolo[3,4-d]pyrimidine]
 |  | 1 to 10 µM | < 0.1 µM | Cc1ccc(Cl)cc1N1CCN(c2ncnc3[nH]nc(CCC(=O)O)c23)CC1 [Entry 370, 3-{4-[4-(5-chloro-2-methylphenyl)piperazin-1-yl]-1H-pyrazolo[3,4-d]pyrimidin-3-yl}propanoic acid]
< 0.1 µM | < 0.1 µM |  |  | CCOCc1cc(NCCN2CCCC2)c(C)c(N2CCN(c3ncnc4[nH]nc(Br)c34)CC2)c1 [Entry 272, 3-[4-(3-bromo-1H-pyrazolo[3,4-d]pyrimidin-4-yl)piperazin-1-yl]-5-[(ethyloxy)methyl]-2-methyl-N-(2-pyrrolidin-1-ylethyl)aniline]
 |  | < 0.1 µM | < 0.1 µM | Cc1c(NCCN2CCCC2)cc(OCC(F)(CF)CF)cc1N1CCN(c2ncnc3[nH]nc(/C=C/C(=O)O)c23)CC1 [Entry 291, (2E)-3-[4-(4-{5-{[2,3-difluoro-2-(fluoromethyl)pro-pyl]oxy}-2-methyl-3-[(2-pyrrolidin-1-ylethyl)a-mino]phenyl}piperazin-1-yl)-1H-pyrazolo[3,4-d]pyrimidin-3-yl]prop-2-enoic acid]
 |  | 1 to 10 µM | 0.1 to 1 µM | Cc1ccc(Cl)cc1N1CCN(c2ncnc3[nH]nc(Cc4ccccc4)c23)CC1 [Entry 354, 4-[4-(5-chloro-2-methylphenyl)piperazin-1-yl]-3-(phenylmethyl)-1H-pyrazolo[3,4-d]pyrimidine]
0.1 to 1 µM | < 0.1 µM |  |  | Cc1c(OCCN2CCCC2)cc(Cl)cc1N1CCN(c2ncnc3[nH]nc(C(F)(F)F)c23)CC1 [Entry 39, 4-(4-{5-chloro-2-methyl-3-[(2-pyrrolidin-1-ylethyl)oxy]phenyl}piperazin-1-yl)-3-(trifluoromethyl)-1H-pyrazolo[3,4-d]pyrimidine]

From US8076338B2, “Kinase modulators and methods of use” (Exelixis, Inc., priority 2004, dated 2011)
